The results in this text go back to US20080241904A1, “PROCESS FOR PRODUCING ISOMALTOSE AND USES THEREOF” (KABUSHIKI KAISHA HAYASHIBARA SEIBUTSU KAGAKU KENKYUJO, priority 2001, published 2008).

Assay type in all cases: biochemical
Test [1] has as its system α-isomaltosylglucosaccharide-forming enzyme from Bacillus globisporus C11 strain. Nature of the test: Specificity of saccharide transferring reaction acceptor, enzyme of Strain C11. As to conditions: 1.6% acceptor, 4% PINE-DEX #100 as donor, one unit/g donor, 30° C., pH 6.0, 24 hours; GLC or HPLC. As to the method: (§1) Using different saccharides, it was tested whether the saccharides were used as saccharide transferring reaction acceptors for the α-isomaltosylglucosaccharide-forming enzyme. A 1.6% solution, as a solution of saccharide transferring reaction acceptor, of D-glucose, D-xylose, L-xylose, D-galactose, D-fructose, D-mannose, D-arabinose, D-fucose, L-sorbose, L-rhamnose, methyl-α-glucopyranoside (methyl-α-glucose), methyl-β-glucopyranoside ([…]), N-acetyl-glucosamine, sorbitol, α,α-trehalose, isomaltose, isomaltotriose, cellobiose, gentibiose, maltitol, lactose, sucrose, α-cyclodextrin, β-cyclodextrin, or γ-cyclodextrin, was prepared. To each solution with a saccharide concentration was added “PINE-DEX #100”, a partial starch hydrolysate, as a saccharide donor, to give a concentration of 4%, and admixed with one unit/g saccharide donor, d.s.b., of either of purified specimens of α-isomaltosylglucosaccharide-forming enzyme from Bacillus globisporus C9 strain obtained by the method in Experiment 2-1, Bacillus globisporus C11 strain obtained by the method in Experiment 4-1. The resulting mixture solutions were incubated at 30° C. and pH 6.0 except that the enzyme from Arthrobacter globiformis A19 strain was incubated at pH 8.4 for 24 hours. The reaction mixtures of the post-enzymatic reactions were analyzed on gas chromatography (abbreviated as “GLC” hereinafter) for monosaccharides and disaccharides as acceptors, and on HPLC for trisaccharides as acceptors to confirm whether these saccharides could be used as their saccharide transferring reaction acceptors. In the case of performing GLC, the following apparatuses and conditions are used: GLC apparatus, “GC-16A” commercialized by Shimadzu Corporation, Tokyo, Japan; column, a stainless-steel column, 3 mm in diameter and 2 m in length, packed with 2% “SILICONE OV-17/CHROMOSOLV W”, commercialized by GL Sciences Inc., Tokyo, Japan; carrier gas, nitrogen gas at a flow rate of 40 ml/min under temperature conditions of increasing from 160° C. to 320° C. at an increasing temperature rate of 7.5° C./min; and detection, a hydrogen flame ionization detector.
(§2) In the case of HPLC analysis, the apparatuses and conditions used were: HPLC apparatus, “CCPD” commercialized by Tosoh Corporation, Tokyo, Japan; column, “ODS-AQ-303” commercialized by YMC Co., Ltd., Tokyo, Japan; eluent, water at a flow rate of 0.5 ml/min; and detection, a differential refractometer.

Test [2] deals with α-isomaltosylglucosaccharide-forming enzyme from Bacillus globisporus C9 strain. Nature of the test: Specificity of saccharide transferring reaction acceptor, enzyme of Strain C9. Conditions: 1.6% acceptor, 4% PINE-DEX #100 as donor, one unit/g donor, 30° C., pH 6.0, 24 hours; GLC or HPLC. As to the method:
as §1, §2

For test [3], the system named is α-isomaltosylglucosaccharide-forming enzyme from Bacillus globisporus C11. Nature of the test: Action of α-isomaltosylglucosaccharide-forming enzyme on saccharides as substrates (TLC), enzyme of Strain C11. The arrangement: key: −: it showed no change; +: it showed a slight reduction of the color of substrate spot and the formation of other reaction product; ++: it showed a high reduction of the color of substrate spot and the formation of other reaction product; +++: it showed a substantial disappearance of the color of substrate spot and the formation of other reaction product. As to conditions: two units/g substrate, substrate 2% (w/v), 30° C., pH 6.0, 24 hours. As to the method:
(§3) The action of α-isomaltosylglucosaccharide-forming enzyme on saccharides as substrates was tested. First, a solution of maltose, maltotriose, maltotetraose, maltopentaose, maltohexaose, maltoheptaose, isomaltose, isomaltotriose, panose, isopanose, α,α-trehalose (may be abbreviated as “trehalose” hereinafter), kojibiose, nigerose, neotrehalose, cellobiose, gentibiose, maltitol, maltotriitol, lactose, sucrose, erlose, selaginose, maltosyl glucoside, or isomaltosyl glucoside was prepared. To each of the above solutions was added two units/g substrate of the purified specimen of α-isomaltosylglucosaccharide-forming enzyme from Bacillus globisporus C9 in Experiment 2-1 or Bacillus globisporus C11 in Experiment 4-1, and each resulting solution was adjusted to give a substrate concentration of 2% (w/v) and incubated at 30° C. and pH 6.0 for 24 hours. The solutions before and after the enzymatic reactions were respectively subjected to thin-layer chromatography (abbreviated as “TLC” hereinafter). TLC was carried out in such a manner of separating saccharides by developing the solutions twice each using, as a developer, a mixture solution of n-butanol, pyridine, and water (=6:4:1), and, as a thin-layer plate, “[…] 60”, an aluminum plate (20×20 cm) for TLC commercialized by Merck & Co., Inc., Rahway, USA.; detecting the total saccharides in each mixture solution by spraying a mixture of sulfuric acid and methanol onto the aluminum plates to develop color of the total saccharides and detecting non-reducing saccharides in each mixture solution by the diphenylamine-aniline method.

Test [4] deals with α-isomaltosylglucosaccharide-forming enzyme from Bacillus globisporus C9. Nature of the test: Action of α-isomaltosylglucosaccharide-forming enzyme on saccharides as substrates (TLC), enzyme of Strain C9. More on the design: key: −: it showed no change; +: it showed a slight reduction of the color of substrate spot and the formation of other reaction product; ++: it showed a high reduction of the color of substrate spot and the formation of other reaction product; +++: it showed a substantial disappearance of the color of substrate spot and the formation of other reaction product. As to conditions: two units/g substrate, substrate 2% (w/v), 30° C., pH 6.0, 24 hours. As to the method:
as §3

As to `O=C[C@H](O)[C@@H](O)[C@H](O[C@@H]1O[C@H](CO)[C@@H](O)[C@H](O)[C@H]1O)[C@H](O)CO` [Cellobiose, cellobiose], the “Product of saccharide transferring reaction, Enzyme of Strain C11” value (from here on “Product … of Strain C11”) in test [1] was “++ (a saccharide-transferred product was detected in an amount of at least ten percent through transferring reaction to acceptor)”. Moreover, the “Product of saccharide transferring reaction, Enzyme of Strain C9” value (“Product … of Strain C9” below) in test [2] is “++ (a saccharide-transferred product was detected in an amount of at least ten percent through transferring reaction to acceptor)”. Moreover, the “Enzymatic action, Enzyme of Strain C11” value in test [3] is recorded as “−”. Further, the “Enzymatic action, Enzyme of Strain C9” value in test [4] was “−”.
For `OC[C@H]1O[C@@](CO)(O[C@H]2O[C@H](CO)[C@@H](O[C@H]3O[C@H](CO)[C@@H](O)[C@H](O)[C@H]3O)[C@H](O)[C@H]2O)[C@@H](O)[C@@H]1O` [Erlose, erlose], the “Enzymatic action, Enzyme of Strain C11” value in test [3] is given as “+”. Further, the “Enzymatic action, Enzyme of Strain C9” value in test [4] is recorded as “+”.
Take `OC[C@H]1O[C@@H](OC[C@H]2OC(O)[C@H](O)[C@@H](O)[C@@H]2O)[C@H](O)[C@@H](O)[C@@H]1O` (some centres unmarked) [Gentibiose, gentibiose]: the “Product … of Strain C11” value in test [1] is reported as “++ (a saccharide-transferred product was detected in an amount of at least ten percent through transferring reaction to acceptor)”. For the same compound, the “Product … of Strain C9” value in test [2] is given as “++ (a saccharide-transferred product was detected in an amount of at least ten percent through transferring reaction to acceptor)”. Further, the “Enzymatic action, Enzyme of Strain C11” value in test [3] is on record as “−”. For the same compound, the “Enzymatic action, Enzyme of Strain C9” value in test [4] is recorded as “−”.
For `OC[C@H]1O[C@H](OC[C@H]2OC(O)[C@H](O)[C@@H](O)[C@@H]2O)[C@H](O)[C@@H](O)[C@@H]1O` (some centres unmarked) [Isomaltose, isomaltose], the “Product … of Strain C11” value in test [1] is given as “++ (a saccharide-transferred product was detected in an amount of at least ten percent through transferring reaction to acceptor)”. Also, the “Product … of Strain C9” value in test [2] is on record as “++ (a saccharide-transferred product was detected in an amount of at least ten percent through transferring reaction to acceptor)”. In addition, the “Enzymatic action, Enzyme of Strain C11” value in test [3] is listed as “−”. Further, the “Enzymatic action, Enzyme of Strain C9” value in test [4] is listed as “−”.
Regarding `OC[C@H]1O[C@H](O[C@H]2[C@H](O)[C@@H](O)[C@@H](OC[C@H]3OC(O)[C@H](O)[C@@H](O)[C@@H]3O)O[C@@H]2CO)[C@H](O)[C@@H](O)[C@@H]1O` (some centres unmarked) [Isopanose, isopanose], in test [3], the “Enzymatic action, Enzyme of Strain C11” value is recorded as “++”. The “Enzymatic action, Enzyme of Strain C9” value in test [4] is reported as “++”.
For the compound `OC[C@H]1O[C@H](O[C@H]2C(O)O[C@H](CO)[C@@H](O)[C@@H]2O)[C@H](O)[C@@H](O)[C@@H]1O` (some centres unmarked) [Kojibiose, kojibiose], the “Enzymatic action, Enzyme of Strain C11” value in test [3] is “+”. For the same compound, the “Enzymatic action, Enzyme of Strain C9” value in test [4] is recorded as “+”.
As for `OC[C@H]1O[C@H](O[C@H]2[C@H](O)[C@@H](O)[C@H](O)O[C@@H]2CO)[C@H](O)[C@@H](O)[C@@H]1O` [Maltose, maltose], the “Enzymatic action, Enzyme of Strain C11” value in test [3] was “+”. Also, the “Enzymatic action, Enzyme of Strain C9” value in test [4] is listed as “+”.
As for `OC[C@H]1O[C@H](O[C@H]2O[C@H](CO)[C@@H](O[C@H]3O[C@H](CO)[C@@H](O)[C@H](O)[C@H]3O)[C@H](O)[C@H]2O)[C@H](O)[C@@H](O)[C@@H]1O` [Maltosylglucoside, maltosyl glucoside], in test [3], the “Enzymatic action, Enzyme of Strain C11” value was “++”. Moreover, the “Enzymatic action, Enzyme of Strain C9” value in test [4] is “++”.
For the compound `OC[C@H]1O[C@H](O[C@H]2[C@H](O)[C@@H](O)[C@@H](O[C@H]3[C@H](O)[C@@H](O)[C@@H](O[C@H]4[C@H](O)[C@@H](O)C(O)O[C@@H]4CO)O[C@@H]3CO)O[C@@H]2CO)[C@H](O)[C@@H](O)[C@@H]1O` (some centres unmarked) [Maltotetraose, maltotetraose], the “Enzymatic action, Enzyme of Strain C11” value in test [3] was “+++”. In addition, the “Enzymatic action, Enzyme of Strain C9” value in test [4] is “+++”.
As to `OC[C@@H](O)[C@@H](O[C@H]1O[C@H](CO)[C@@H](O[C@H]2O[C@H](CO)[C@@H](O)[C@H](O)[C@H]2O)[C@H](O)[C@H]1O)[C@H](O)[C@@H](O)CO` [Maltotriitol, maltotriitol], the “Enzymatic action, Enzyme of Strain C11” value in test [3] is “+”. Moreover, the “Enzymatic action, Enzyme of Strain C9” value in test [4] is given as “+”.
For the compound `OC[C@H]1O[C@@H](O[C@H]2O[C@H](CO)[C@@H](O)[C@H](O)[C@H]2O)[C@H](O)[C@@H](O)[C@@H]1O` [Neotrehalose, neotrehalose], the “Enzymatic action, Enzyme of Strain C11” value in test [3] is on record as “+”. Also, the “Enzymatic action, Enzyme of Strain C9” value in test [4] is given as “+”.
Turning to `OC[C@H]1O[C@H](O[C@H]2[C@H](O)[C@@H](CO)OC(O)[C@@H]2O)[C@H](O)[C@@H](O)[C@@H]1O` (some centres unmarked) [Nigerose, nigerose], the “Enzymatic action, Enzyme of Strain C11” value in test [3] was “+”. The “Enzymatic action, Enzyme of Strain C9” value in test [4] is given as “+”.
With `OC[C@H]1O[C@H](OC[C@H]2O[C@H](O[C@H]3[C@H](O)[C@@H](O)C(O)O[C@@H]3CO)[C@H](O)[C@@H](O)[C@@H]2O)[C@H](O)[C@@H](O)[C@@H]1O` (some centres unmarked) [Panose, panose], the “Enzymatic action, Enzyme of Strain C11” value in test [3] is on record as “−”. Besides, the “Enzymatic action, Enzyme of Strain C9” value in test [4] is listed as “−”.
Take `OC[C@H]1O[C@H](O[C@H]2O[C@H](CO)[C@@H](O)[C@H](O)[C@H]2O[C@H]2O[C@H](CO)[C@@H](O)[C@H](O)[C@H]2O)[C@H](O)[C@@H](O)[C@@H]1O` [Selaginose, selaginose]: the “Enzymatic action, Enzyme of Strain C11” value in test [3] was “−”. Besides, in test [4], the “Enzymatic action, Enzyme of Strain C9” value is on record as “−”.
Consider “isomaltosyl glucoside [Isomaltosylglucoside]”, for which the “Enzymatic action, Enzyme of Strain C11” value in test [3] is given as “−”. Further, the “Enzymatic action, Enzyme of Strain C9” value in test [4] was “−”.
Consider maltoheptaose, for which the “Enzymatic action, Enzyme of Strain C11” value in test [3] is given as “+++”. Further, in test [4], the “Enzymatic action, Enzyme of Strain C9” value is “+++”.
For the compound maltohexaose, the “Enzymatic action, Enzyme of Strain C11” value in test [3] is recorded as “+++”. For the same compound, the “Enzymatic action, Enzyme of Strain C9” value in test [4] is “+++”.
On to maltopentaose, for which the “Enzymatic action, Enzyme of Strain C11” value in test [3] was “+++”. In addition, the “Enzymatic action, Enzyme of Strain C9” value in test [4] is given as “+++”.
As to maltotriose, the “Enzymatic action, Enzyme of Strain C11” value in test [3] was “++”. In test [4], the “Enzymatic action, Enzyme of Strain C9” value is on record as “++”.
